Source: PubChem BioAssay AID651841 (Broad Institute, 2012)
Values joined by “and” are separate entries in the source; they are usually repeats but may differ in a detail not shown here. Equal entries are not always repeated. Active and inactive are the calls of the source. How the calls were made is not given here.

What follows are compounds tested on CAI-1 sensor histidine kinase CqsS (Vibrio cholerae) (assay: Inducers of light production, absence of autoinducers, V cholerae delta luxQ strain, confirmatory (AID 651841)). Details: V. cholerae WN1103 delta luxQ, luciferase light, 6 h.

Compound | AC40
CC(C)NC(=O)Cc1ccc(-c2ccccc2)cc1 | 2500 nM
CCn1nnnc1NCc1ccc(N2CCCCC2)cc1 | 55.5 nM
CCn1nnnc1NCc1ccc(C(C)C)cc1 | 5.01 nM and 45.1 nM
Cn1nnnc1NCc1ccc(N2CCCC2)cc1 | 351 nM
CCCn1nnnc1NCc1ccc(C(C)C)cc1 | 319 nM
CCn1nnnc1NCc1ccc(N2CCCC2)cc1 | 10.7 nM
CCn1nnnc1NCc1cccc(N2CCCC2)c1 | 51.2 nM
O=C(Cc1ccc(-c2ccccc2)cc1)NC1CCCC1 | 212 nM and 313 nM
CCn1nnnc1CCc1ccc(N2CCCC2)cc1 | 713 nM
CCC(C)NC(=O)Cc1ccc(-c2ccccc2)cc1 (stereo not given) | 2060 nM
O=C(Cc1ccc(-c2ccccc2)cc1)NC1CCC1 | 280 nM
CCCCn1nnnc1NCc1ccc(N2CCCC2)cc1 | 2640 nM
CC(C)c1ccc(CNc2nnnn2C)cc1 | 577 nM
O=C(Cc1ccc(-c2ccccc2)cc1)NC1CCOCC1 | 1200 nM
CCCn1nnnc1NCc1ccc(N2CCCC2)cc1 | 12.1 nM
CCC(CC)NC(=O)Cc1ccc(-c2ccccc2)cc1 | 2200 nM
O=C(Cc1ccc(-c2ccccc2)cc1)NC1CCCCC1 | 8980 nM

Same assay, conditions: V. cholerae WN1103 delta luxQ, luciferase light, 6 h; at 80 µM (top of the series)

Compound | activation
O=C(Cc1ccccc1F)NC1CCCC1 | 0.603% (inactive)
O=C(Cc1ccccc1Cl)NC1CCCC1 | 0.107% (inactive)
CS(=O)(=O)c1ccc(CC(=O)NC2CCCC2)cc1 | 0.008% (inactive)
CCn1nccc1/N=C/c1ccc(N2CCCC2)cc1 | 0.487% (inactive)
c1ccc(Cn2nnnc2NCc2ccc(N3CCCC3)cc2)cc1 | 0.279% (inactive)
c1ccc(Cn2nnc(NCc3ccc(N4CCCC4)cc3)n2)cc1 | 0.159% (inactive)
CCn1nnnc1NCc1cccc(OC)c1 | 24.5% (inactive)
CCn1nnc(NCc2ccc(C)cc2)n1 | 0.069% (inactive)
CCc1ccccc1NCc1ccc(N2CCCC2)cc1 | 0.105% (inactive)
CCn1nccc1NCc1ccc(N2CCCC2)cc1 | 0.149% (inactive)
CCCn1nnnc1NCc1ccccc1Cl | 0.104% (inactive)
Cc1ccc(Cn2nnnc2NCc2ccc(N3CCCC3)cc2)cc1 | 0.549% (inactive)
O=C(Cc1cccc(OC(F)(F)F)c1)NC1CCCC1 | 2.18% (inactive)
O=C(Cc1ccccc1OC(F)(F)F)NC1CCCC1 | 0.045% (inactive)
CCn1nnc(CCc2ccc(N3CCCC3)cc2)n1 | 0.131% (inactive)
c1ccc(-n2nnnc2NCc2ccc(N3CCCC3)cc2)cc1 | 0.501% (inactive)
O=C(Cc1cccc(F)c1)NC1CCCC1 | 0.377% (inactive)
O=C(Cc1ccccc1C(F)(F)F)NC1CCCC1 | 0.044% (inactive)
O=C(NCc1ccc(-c2ccccc2)cc1)C1CCCC1 | 3.17% (inactive)
Fc1ccc(Cn2nnnc2NCc2ccc(N3CCCC3)cc2)cc1 | 0.54% (inactive)
Cc1ccccc1CC(=O)NC1CCCC1 | 0.164% (inactive)
COc1ccc(CC(=O)NC2CCCC2)cc1 | 13% (inactive)
CCn1nnnc1NCc1ccccc1N1CCCC1 | 0.052% (inactive)
